Measurements reported in patent US20040110687A1, “Methods and compositions for treating gastrointestinal toxicity induced by cytoablative therapy” (priority 2002, published 2004).
Like-named read-outs stand apart in the source and are kept apart here. Marks after values point to notes of the source that are not given here.

Tests used:
[1] = tested on: normal, non-tumor bearing mice; type: in vivo
Description: A second study was performed to determine whether RDP58 also limits 5-FU induced diarrhea. Normal, non-tumor bearing mice were treated with 100 mg/kg 5-FU daily for two consecutive days and were concurrently given 10 mg/kg RDP58 orally or water only. […] All ten animals in the control group had diarrhea compared to only three of ten RDP58 treated animals.

[2] = tested on: mice bearing CT-26 tumors; assay: CPT-11 efficacy and treatment related mortality with or without RDP58 in tumor model; type: in vivo; settings: for reduction in tumor weight: CPT-11 100 mg/kg qdx3, three regimens
Description: To determine whether RDP58 altered the efficacy of CPT-11 therapy, mice bearing CT-26 tumors were treated with three regimens of CPT-11 at 100 mg/kg qdx3 and given 5.0 mg/kg RDP58 orally.

[3] = CPT-11 dose escalation (LD50) with or without oral RDP58; type: in vivo, mice; settings: mouse, in vivo, intraperitoneal; without RDP58, as restated in Example 7
Description: (§1) To determine whether concurrent oral RDP58 treatment can increase the maximum dose of CPT-11 without a concomitant increase in mortality, normal non-tumor bearing mice were injected qdx3 with 0, 100, 200, 300, or 400 mg/kg CPT-11 injected i.p. qdx3 on Days 0, 1 and 2. RDP58 was given orally at 10 mg/kg in the drinking water starting on Day 3. Mice were monitored for body weight loss, incidence of diarrhea and mortality until end of study on Day 12.

[4] = tested on: normal non-tumor bearing mice; assay: as above; type: in vivo
Description: as §1

[5] = MTD vs 2xMTD CPT-11 with or without RDP58: mortality and tumor response; settings: mouse, in vivo
[6] = tested on: tumor bearing mice; assay: as above
[7] = tested on: normal, non-tumor bearing mice; assay: CPT-11-induced gastrointestinal toxicity and mortality, RDP58 dose finding study
Description: In a dose finding study, normal, non-tumor bearing mice were injected intraperitoneally with 200 mg/kg CPT-11 once a day for three consecutive days and concurrently given 0, 2.5, 5.0 or 10 mg/kg RDP58 orally.

[8] = CPT-11 200 mg/kg/dose i.p. once a day for three days, RDP58 none
[9] = RDP58 10 mg/kg orally with 5-FU 100 mg/kg
[10] = RDP58 10 mg/kg/day orally with 5-FU 100 mg/kg/dose
[11] = CPT-11 100 mg/kg qdx3 with 5.0 mg/kg RDP58 orally
[12] = RDP58 orally 10 mg/kg in the drinking water
[13] = RDP58 2.5 mg/kg/day orally with CPT-11 200 mg/kg/dose
[14] = RDP58 5 mg/kg/day orally with CPT-11 200 mg/kg/dose
[15] = RDP58 10 mg/kg/day orally with CPT-11 200 mg/kg/dose

Compound: O=c1[nH]cc(F)c(=O)[nH]1 [5-FU, 5-Fluorouracil, reference compound]
- Toxicity (%) Mortality ([1]; 5-FU 100 mg/kg/dose daily for two days, RDP58 none): 90(9/10) %
- survival rate ([1]; mouse, in vivo, 12 days): 10%

Compound: CCc1c2c(nc3ccc(OC(=O)N4CCC(N5CCCCC5)CC4)cc13)-c1cc3c(c(=O)n1C2)COC(=O)[C@]3(O)CC [CPT-11, irinotecan, reference compound]
- reduction in tumor weight ([2]; RDP58 untreated): 61%
- mortality ([2]; control group, CPT-11 100 mg/kg qdx3 without RDP58): 40%
- LD50 at 12 days [3]: ~465 mg/kg
- LD50 ([4]; CPT-11 i.p. qdx3 alone, until Day 12): approximately 450 mg/kg/total dose
- MTD at 12 days [5]: 600 mg/kg
- animals that survived the complete treatment regimen ([6]; 2×MTD CPT-11 (1200 mg/kg)): 50%
- animals died from the CPT-11 ([6]; CPT-11 at MTD 600 mg/kg): No animals in this treatment group died
- Maximum weight loss [7, 8]: 29.4 ± 4.3
- Toxicity (%) Diarrhea [7, 8]: 97 (29/30)^b %
- Toxicity (%) Mortality [7, 8]: 73 (22/30) %
- mice died from CPT-11 treatment ([7]; control group, CPT-11 200 mg/kg without RDP58): 22 of 30

Compound: Arg-nL-nL-nL-Arg-nL-nL-nL-Gly-Tyr [RDP58]
- animals that had diarrhea [1, 9]: three of ten
- total body weight loss [1, 9]: significant reduction
- Maximum weight loss [1, 10]: 13.9 ± 3.8b
- Toxicity (%) Diarrhea [1, 10]: 30(3/10) %
- Toxicity (%) Mortality [1, 10]: 10(1/10) %
- survival rate ([1]; twelve days after 5-FU administration, RDP58 10 mg/kg orally): 90%
- reduction in tumor weight ([2]; with 5.0 mg/kg RDP58 orally): 55%
- survival [2, 11]: significantly increased
- treatment related deaths [2, 11]: No treatment related deaths
- LD50 of CPT-11 with RDP58 ([4]; 10 mg/kg RDP58, as restated in Example 7): ~720 mg/kg total dose
- LD50 of CPT-11 with administration of RDP58 [4, 12]: approximately 725 mg/kg/total dose
- increase of CPT-11 LD50 by a factor [4, 12]: about 1.6 ×
- animals that survived the complete treatment regimen ([6]; 2×MTD CPT-11 + 10 mg/ml RDP58): 83%
- maximum total body weight lost compared to RDP58 untreated mice ([7]; 5.0 and 10.0 mg/kg RDP58 with CPT-11 200 mg/kg): reduction
- survival twelve days after the first injection of CPT-11 ([7]; RDP58 0, 2.5, 5.0 or 10 mg/kg orally with CPT-11 200 mg/kg): dose dependent increase
- Maximum weight loss [7, 13]: 27.8 ± 3.7
- Toxicity (%) Diarrhea [7, 13]: 67 (10/15)^b %
- Toxicity (%) Mortality [7, 13]: 60 (9/15) %
- Maximum weight loss [7, 14]: 25.6 ± 4.4^a
- Toxicity (%) Diarrhea [7, 14]: 40 (12/30)^b %
- Toxicity (%) Mortality [7, 14]: 23 (7/30) %
- Maximum weight loss [7, 15]: 24.6 ± 1.9^a
- Toxicity (%) Diarrhea [7, 15]: 33 (5/15)^b %
- Toxicity (%) Mortality [7, 15]: 7 (1/15) %
- mice died from CPT-11 treatment ([7]; RDP58 group with CPT-11 200 mg/kg): one of fifteen
- appearance of diarrhea ([7]; mice receiving RDP58 with CPT-11 200 mg/kg): dose dependent decrease
